Ki and EC50 data for 25 molecules are collected here from patent US7169932B2 (priority 2001, dated 2007).

Read-outs that look alike come from different tables or passages of the source. Where only a bound is given, the exact number is not on record here.

The target in one experiment is T1, HIV-1 protease (Q7S) (Human immunodeficiency virus type 1 group M subtype B, UniProt P04585, Q495S).
T1 construct: made in house
In words: HIV-1 Protease RET Assay. Type of experiment: biochemical. As to the method: Ki's for the inhibitors of HIV-1 protease were determined using a resonance energy transfer (RET) assay. […] This enzyme is first partially purified as inclusion bodies from cell lysate. It is then solublized in 8M urea and passed through a Q-Sepharose column (Pharmacia) for further purification. To refold this protein, samples containing Q7S is dialyzed into 50 mM sodium phosphate pH 7.0, 50 mM NaCl, 10 mM DTT, and 10% glycerol.
The commercially available peptide substrate (Molecular Probes Cat. # H-2930) RE(EDANS)SQNYPIVQK(DABCYL)R is used to assess activity and Ki's. This peptide is cleaved quantitatively by HIV-1 Pr at the Tyr-Pro bond. The EDANS fluorophore absorbs at 340 nm and emits at 490 nm. The reaction is carried out in a 96 well plate in a total volume of 100 μL and is run for 12 minutes at 37 C under steady-state conditions with 5 μM substrate and 2 nM active dimer enzyme concentration. The literature value Km for this substrate and enzyme is 103+/−8 μM (See Matayoshi, et al., “Novel Fluorogenic Substrates for Assaying Retroviral Proteases by Resonance Energy Transfer,” Science 247, 954 (1990)). The buffer for this reaction is 0.1M sodium acetate pH 4.8, 1M NaCl, 1 mM EDTA, 5 mM dithiothreitol, 10% dimethyl sulfoxide and 1 mg/ml bovine serum albumin. Inhibition curves are fit using the Morrison tight binding equation.

Another experiment concerns HIV-1. Description: Cytopathic Effect (CPE) Inhibition Assay (XTT dye reduction). It counts as cell-based. As to the method: T-cell lines, CEM-SS, and MT-2, and viruses HIV-1 RF and HIV-1 NL4–3 (pNL4–3) were obtained from the National Institutes of Health (AIDS Research and Reference Reagent Program, Bethesda, Md.).
The ability of compounds to protect cells against HIV infection was measured by the […] dye reduction method, essentially as described (See Pauwels, R. Balzarini, J. Baba, M. Snoeck, R. Schols, D. Herdewijn, P. Desmyter, J. and De Clercq, E. 1988, “Rapid and automated tetrazolium-based colorimetric assay for the detection of anti-HIV compounds,”. J Virol Methods., 20: 309–321 and Weislow, O. S. Kiser, R. Fine, D. L. Bader, J. Shoemaker, R. H. and Boyd, M. R. 1989. “New soluble-formazan assay for HIV-1 cytopathic effects: application to high-flux screening of synthetic and natural products for AIDS-antiviral activity”. J. Natl. Cancer Inst. 81:577–586). Subject cells were infected with test virus at an moi of 0.025 to 0.819 or mock infected with medium only and added at 2×10^4 cells per well into 96 well plates containing half-log dilutions of test compounds. Six days later, 50 μl of XTT (1 mg/ml XTT tetrazolium, […] phenazine methosulfate) was added to the wells and the plate was reincubated for four hours. Viability, as determined by the amount of XTT formazan produced, was quantified spectrophotometrically by absorbance at 450 nm. Data from CPE assays were expressed as the percent of formazan produced in compound-treated cells compared to formazan produced in wells of uninfected, compound-free cells. The fifty percent effective concentration (EC50) was calculated as the concentration of compound that effected an increase in the percentage of formazan production in infected, compound-treated cells to 50% of that produced by uninfected, compound-free cells. The 50% cytotoxicity concentration (CC50) was calculated as the concentration of compound that decreased the percentage of formazan produced in uninfected, compound-treated cells to 50% of that produced in uninfected, compound-free cells. The therapeutic index was calculated by dividing the cytotoxicity (CC50) by the antiviral activity (EC50).

Setting [1] is: Ave. Ki (nM), RET assay, Q7S enzyme, pH 4.8, 37 C.
Setting [2] is: Human immunodeficiency virus 1, 144 h, read-out: Ave CPE EC50 (mM).
[3] abbreviates: Ki, table of drawn compounds, unit inferred.
Setting [4] is: RET assay, Q7S enzyme, pH 4.8, 37 C, read-out: Ave. Ki.

In the case of `COc1ccc(C(=O)NC(Cc2ccccc2)C(O)C(=O)N2CSC(C)(C)[C@H]2C(=O)NCc2ccccc2C)c(C)c1` (stereo in doubt) [Example B29, 3-[2-Hydroxy-3-(4-methoxy-2-methyl-benzoylamino)-4-phenyl-butyryl]-5,5-dimethyl-thiazolidine-4-carboxylic acid 2-methyl-benzylamide], the Ki at HIV-1 protease (Q7S) (setting [1]) came out at 0.12 nM. For the same molecule, the EC50 in the experiment on HIV-1 (setting [2]) is 0.00126 mM.

On HIV-1 protease (Q7S) (setting [3]), `C#CCNC(=O)[C@H]1N(C(=O)[C@@H](O)[C@H](Cc2ccccc2)NC(=O)[C@@H]2CCCO2)CSC1(C)C` returned a Ki of 16.8 nM. Moreover, in the experiment with HIV-1 (Human immunodeficiency virus 1), the concentration giving a half-maximal response (EC50) is 0.00374 mM.

`Cc1c(Cl)cccc1CNC(=O)[C@H]1N(C(=O)[C@@H](O)[C@H](Cc2ccccc2)NC(=O)c2cccc(O)c2C)CSC1(C)C`: at HIV-1 protease (Q7S) (setting [3]), the affinity, expressed as Ki, was 0.2 nM. In the experiment on HIV-1 (Human immunodeficiency virus 1), this molecule yielded an EC50 of 0.000113 mM.

On HIV-1 protease (Q7S) (setting [1]), `Cc1ccccc1CNC(=O)[C@H]1N(C(=O)[C@@H](O)[C@H](Cc2ccccc2)NC(=O)c2c(C)nn(C)c2Cl)CSC1(C)C` [Example B14, 3-{(S)-3-[(5-Chloro-1,3-dimethyl-1H-pyrazole-4-carbonyl)-amino]-2-hydroxy-4-phenyl-butyryl}-5,5-dimethyl-thiazolidine-4-carboxylic acid 2-methyl-benzylamide] gave a Ki of 3.7 nM. The EC50 in the experiment with HIV-1 (setting [2]) was determined as 0.00305 mM.

With `Cc1c(O)cccc1C(=O)N[C@@H](Cc1ccccc1)[C@H](O)C(=O)N1CSC(C)(C)[C@H]1C(=O)c1ccccc1`, the affinity on HIV-1 protease (Q7S) (setting [3]) corresponds to a Ki of 2.5 nM. Besides, the concentration giving a half-maximal response (EC50) in the experiment with HIV-1 (Human immunodeficiency virus 1) was 0.00122 mM.

At HIV-1 protease (Q7S) (setting [3]), `Cc1c(O)cccc1C(=O)N[C@@H](Cc1ccccc1)[C@H](O)C(=O)N1CSC(C)(C)[C@H]1C(=O)NCc1cc(F)cc(F)c1` gave a Ki of 0.36 nM. Besides, the midpoint of the response in the experiment with HIV-1 (Human immunodeficiency virus 1), the EC50, lay at 0.000144 mM.

For the molecule `Cc1cc(C(=O)N[C@@H](Cc2ccccc2)[C@H](O)C(=O)N2CSC(C)(C)[C@H]2C(=O)NCc2ccccc2C)no1`, on HIV-1 protease (Q7S) (setting [3]), the inhibitory constant (Ki) is 2.6 nM. The EC50 in the experiment with HIV-1 (Human immunodeficiency virus 1) was found to be 0.00131 mM.

Take `Cc1ccccc1CNC(=O)[C@H]1N(C(=O)[C@@H](O)[C@H](Cc2ccccc2)NC(=O)N2CCSC2)CSC1(C)C`: on HIV-1 protease (Q7S) (setting [3]), the affinity, expressed as Ki, was 14 nM. The same molecule showed an EC50 in the experiment on HIV-1 (Human immunodeficiency virus 1) of 0.00151 mM.

At HIV-1 protease (Q7S) (setting [1]), `Cc1ccccc1CNC(=O)[C@H]1N(C(=O)[C@@H](O)[C@H](Cc2ccccc2)NC(=O)c2ccc(O)cc2C)CSC1(C)C` [Example B39, (R)-3-[(2S,3S)-2-Hydroxy-3-(4-hydroxy-2-methyl-benzoylamino)-4-phenyl-butyryl]-5,5-dimethyl-thiazolidine-4-carboxylic acid 2-methyl-benzylamide] came in with a Ki of 0.16 nM.

As for `CCCNC(=O)[C@H]1N(C(=O)[C@@H](O)[C@H](Cc2ccccc2)NC(=O)c2cccc(O)c2C)COC1(C)C` [Example C7, (S)-3-((2S,3S)-2-Hydroxy-3-{[1-(3-hydroxy-2-methyl-phenyl)-methanoyl]-amino}-4-phenyl-butanoyl)-5,5-dimethyl-oxazolidine-4-carboxylic acid propylamide], the Ki on HIV-1 protease (Q7S) (setting [1]) is 7.9 nM.

With `Cc1c(O)cccc1C(=O)N[C@@H](Cc1ccccc1)[C@H](O)C(=O)N1CSC(C)(C)[C@H]1C(=O)NCc1ccc2c(c1)OC(F)(F)O2` [Example A48, (R)-3-((2S,3S)-2-Hydroxy-3-{[1-(3-hydroxy-2-methyl-phenyl)-methanoyl]-amino}-4-phenyl-butanoyl)-5,5-dimethyl-thiazolidine-4-carboxylic acid (2,2-difluoro-benzo[1,3]dioxol-5-ylmethyl)-amide], at HIV-1 protease (Q7S) (setting [4]), the Ki is 0.19 nM.

Molecule `Cc1c(O)cccc1C(=O)N[C@@H](Cc1ccccc1)[C@H](O)C(=O)N1CSC(C)(C)C1C(=O)NCCc1ccc(O)cc1` (stereo partly drawn) returned a Ki at HIV-1 protease (Q7S) (setting [3]) of 13.1 nM.

Turning to `Cc1ccccc1CNC(=O)[C@H]1N(C(=O)[C@@H](O)[C@H](Cc2ccccc2)NC(=O)Cc2c(F)cccc2F)CSC1(C)C`, the Ki on HIV-1 protease (Q7S) (table of drawn compounds, unit inferred, read-out: Ki) was found to be 72 nM.

In the case of `Cc1cc(O)c(C)c(C(=O)N[C@@H](Cc2ccccc2)[C@H](O)C(=O)N2CSC(C)(C)[C@H]2C(=O)NCc2ccccc2C)c1` [Example B43, (R)-3-[(2S,3S)-2-Hydroxy-3-(3-hydroxy-2,5-dimethyl-benzoylamino)-4-phenyl-butyryl]-5,5-dimethyl-thiazolidine-4-carboxylic acid 2-methyl-benzylamide], on HIV-1 protease (Q7S) (setting [1]), the affinity, expressed as Ki, was 0.2 nM.

`COc1cccc(CNC(=O)[C@H]2N(C(=O)[C@@H](O)[C@H](Cc3ccccc3)NC(=O)c3cccc(F)c3C)CSC2(C)C)c1` [Example B32, (R)-3-((2S,3S)-3-{[1-(3-Fluoro-2-methyl-phenyl)-methanoyl]-amino}-2-hydroxy-4-phenyl-butanoyl)-5,5-dimethyl-thiazolidine-4-carboxylic acid 3-methoxy-benzylamide] came in with an inhibitory constant (Ki) at HIV-1 protease (Q7S) (setting [1]) of 4.9 nM.

`Cc1c(O)cccc1C(=O)N[C@@H](Cc1ccccc1)[C@H](O)C(=O)N1CSC(C)(C)[C@H]1C(=O)NCC(C)C` showed a Ki on HIV-1 protease (Q7S) (setting [3]) of no more than 0.1 nM.

Take `COc1cccc(C(=O)[C@H]2N(C(=O)[C@@H](O)[C@H](Cc3ccccc3)NC(=O)c3cccc(O)c3C)CSC2(C)C)c1`: on HIV-1 protease (Q7S) (setting [3]), the Ki came to 7.4 nM.

On HIV-1 protease (Q7S) (setting [1]), `Cc1ccccc1CNC(=O)[C@H]1N(C(=O)[C@@H](O)[C@H](Cc2ccccc2)NC(=O)c2ccnc(Cl)c2Cl)CSC1(C)C` [Example B41, {(1S,2S)-1-Benzyl-3-[(R)-5,5-dimethyl-4-(2-methyl-benzylcarbamoyl)-thiazolidin-3-yl]-2-hydroxy-3-oxo-propyl}-2,3-dichloro-isonicotinamide] yielded a Ki of 0.15 nM.

Molecule `C=CCNC(=O)[C@H]1N(C(=O)[C@@H](O)[C@H](Cc2ccccc2)NC(=O)c2cccnc2C)CSC1(C)C` [Example B49, N-[(1S,2S)-3-(4-Allylcarbamoyl-5,5-dimethyl-thiazolidin-3-yl)-1-benzyl-2-hydroxy-3-oxo-propyl]-2-methyl-nicotinamide] returned an inhibition constant Ki at HIV-1 protease (Q7S) (setting [1]) of 17.2 nM.

For `Cc1ccccc1CNC(=O)[C@H]1N(C(=O)[C@@H](O)[C@H](Cc2ccccc2)NC(=O)N2CC[C@@H](O)C2)CSC1(C)C` [Example B1, 3-(2-hydroxy-3-{[1-(3-hydroxy-pyrrolidin-yl)-methanoyl]-amino}-4-phenyl-butanoyl)-5,5-dimethyl-thiazolidine-4-carboxylic acid-2-methyl-benzylamide], the Ki at HIV-1 protease (Q7S) (setting [4]) turned out to be 2.5 nM.

Molecule `Cc1ccccc1CNC(=O)[C@H]1N(C(=O)[C@@H](O)[C@H](Cc2ccccc2)NC(=O)C2CCCC2)CSC1(C)C` gave a Ki at HIV-1 protease (Q7S) (setting [3]) of 12.1 nM.

On HIV-1 protease (Q7S) (setting [3]), `Cc1ccccc1CNC(=O)[C@H]1N(C(=O)[C@@H](O)[C@H](Cc2ccccc2)NC(=O)C2=CCCC2)CSC1(C)C` displayed a Ki of 3.4 nM.

For `Cc1c(O)cccc1C(=O)N[C@@H](Cc1ccccc1)[C@H](O)C(=O)N1CSC(C)(C)[C@H]1C(=O)NCc1ccc2c(c1)OCO2` [Example A22, 3-((2S,3S)-2-Hydroxy-3-{[1-(3-hydroxy-2-methyl-phenyl)-methanoyl]-amino}-4-phenyl-butanoyl)-5,5-dimethyl-thiazolidine-4-carboxylic acid (benzo[1,3]dioxol-5-ylmethyl)-amide], the Ki at HIV-1 protease (Q7S) (setting [4]) came out at 0.32 nM.

In turn, `Cc1c(O)cccc1C(=O)N[C@@H](Cc1ccccc1)[C@H](O)C(=O)N1COC(C)(C)[C@H]1C(=O)NCC#N` [Example C10, (S)-3-((2S,3S)-2-Hydroxy-3-{[1-(3-hydroxy-2-methyl-phenyl)-methanoyl]-amino}-4-phenyl-butanoyl)-5,5-dimethyl-oxazolidine-4-carboxylic acid cyanomethyl-amide] had a Ki on HIV-1 protease (Q7S) (setting [1]) of 36 nM.

For the molecule `Cc1c(O)cccc1C(=O)N[C@@H](Cc1ccccc1)[C@H](O)C(=O)N1CSC(C)(C)[C@H]1C(=O)NCc1cccc(C(F)(F)F)c1F`, at HIV-1 protease (Q7S) (setting [3]), the Ki was 62 nM.
